Some test systems named below: A498; OVCAR-5; RXF 393; IGROV-1; MDA-MB-435; 786-0; DU-145; Hs-578T; T47D; HCC 2998; HOP-62; CAKI-1; SF-539; RPMI-8226; U-251; UACC-62; A549; BT-549; NCI/ADR-RES; UO-31.
Holding throughout (experiment): DTP human tumour cell line panel, 48 h

By GI50 is commonly meant the concentration that inhibits growth by half.

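Five compound concentrations were applied to cells in 96-well plates for 48 hours; endpoints were derived by simple linear interpolation of the resulting dose-response curve. GI50 = concentration required for 50% inhibition of growth.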 Activity calls are given as the source filed them. No stated cut-off is given here; in the data, active = GI50 up to about 1.1 µM and inactive = higher.

On to `C=C1C(=O)O[C@H]2C/C(C)=C/CC/C(C)=C/CC[C@@](C)(O)[C@@H](I)C[C@@H]12`, for which the GI50 in the experiment on A498 is 17.7 µM (inactive); in the experiment with OVCAR-5, 14.5 µM (inactive); with RXF 393 it was 3.84 µM (inactive); in the experiment with IGROV-1, 3.15 µM (inactive); in the experiment with MDA-MB-435 it was 4.6 µM (inactive); in the experiment on 786-0, 3 µM (inactive). Moreover, the GI50 in the experiment with DU-145 is 9.44 µM (inactive); in the experiment with Hs-578T, 5.79 µM (inactive); in the experiment on T47D, 11.7 µM (inactive); in the experiment on HCC 2998, 12.5 µM (inactive); with HOP-62 it was 16.4 µM (inactive); in the experiment with CAKI-1, 8.93 µM (inactive). Moreover, the GI50 is 4 µM (inactive) with SF-539; 2.69 µM (inactive) in the experiment with RPMI-8226; 13.6 µM (inactive) in the experiment on U-251; 11.3 µM (inactive) in the experiment on UACC-62; 11.2 µM (inactive) with A549; 1.13 µM (inactive) in the experiment on BT-549. Also, the GI50 was 6.3 µM (inactive) with NCI/ADR-RES and 11.7 µM (inactive) in the experiment on UO-31.

For `C/C=C1/CN2CCc3c([nH]c4ccccc34)[C@@H]2C[C@@H]1Cc1nccc2c1[nH]c1cc(O)ccc12`, the GI50 with A498 was 1.93 µM (inactive); in the experiment with OVCAR-5, 2.93 µM (inactive); in the experiment with RXF 393 it was 2.24 µM (inactive); in the experiment on MDA-MB-435, 1.9 µM (inactive); with 786-0, 1.61 µM (inactive); with DU-145 it was 2.07 µM (inactive). Further, the GI50 with Hs-578T was 2.23 µM (inactive); in the experiment on T47D it was 2.14 µM (inactive); in the experiment on HCC 2998, 1.42 µM (inactive); in the experiment on HOP-62, 1.98 µM (inactive); in the experiment on CAKI-1, 1.73 µM (inactive); with SF-539, 2.02 µM (inactive). The GI50 is 2.19 µM (inactive) with U-251; 2.07 µM (inactive) in the experiment with UACC-62; 2.23 µM (inactive) in the experiment on A549; 13.9 µM (inactive) in the experiment with BT-549; 1.72 µM (inactive) in the experiment with NCI/ADR-RES; 1.99 µM (inactive) in the experiment on UO-31.

Consider `CCOC(=O)N1[C@@H]2CCC[C@@H]2C(=O)[C@@H]2CCC[C@@H]21`, for which the GI50 in the experiment on A498, in the experiment with OVCAR-5, in the experiment on RXF 393, with IGROV-1, with MDA-MB-435 and in the experiment on 786-0 was > 100 µM (inactive) throughout. Moreover, the GI50 in the experiment with DU-145, with Hs-578T, in the experiment on T47D, with HCC 2998, in the experiment on HOP-62 and in the experiment with CAKI-1 was > 100 µM (inactive) each time. The GI50 in the experiment on RPMI-8226, in the experiment with U-251, with UACC-62, in the experiment with A549, in the experiment on BT-549 and in the experiment on NCI/ADR-RES was > 100 µM (inactive) each time.

Regarding `C/C(=N\NC(=S)Nc1ccc(Cl)cc1)c1nc2cccnc2[nH]1`, the GI50 with A498 is 6.21 µM (inactive); in the experiment on OVCAR-5, 2.29 µM (inactive); with IGROV-1, 3.08 µM (inactive); with MDA-MB-435, 3.44 µM (inactive); in the experiment with 786-0, 2.17 µM (inactive); in the experiment with DU-145, 1.97 µM (inactive). In addition, the GI50 in the experiment with Hs-578T was 15.1 µM (inactive); in the experiment with T47D it was 3.37 µM (inactive); in the experiment with HCC 2998, 1.3 µM (inactive); in the experiment on HOP-62 it was 1.52 µM (inactive); in the experiment with CAKI-1, 1.53 µM (inactive); in the experiment with SF-539 it was 0.938 µM (active). Also, the GI50 in the experiment on RPMI-8226 was 3.27 µM (inactive); in the experiment with U-251, 0.773 µM (active); in the experiment with UACC-62, 1.87 µM (inactive); in the experiment on A549, 2.38 µM (inactive); in the experiment with BT-549 it was 1.76 µM (inactive); with NCI/ADR-RES, 2.65 µM (inactive). Besides, the GI50 in the experiment with UO-31 is 0.713 µM (active).

In the case of `COc1ccc(C2C3=C(Nc4ncnn42)c2ccccc2OC3c2ccccc2)cc1` (stereo unspecified), the GI50 in the experiment on A498 is 1.03 µM (active); with OVCAR-5, 89.1 µM (inactive); with RXF 393 it was 1.14 µM (inactive); in the experiment on IGROV-1, 27.1 µM (inactive); in the experiment with MDA-MB-435 it was 4.3 µM (inactive); with 786-0, 47.1 µM (inactive). The GI50 in the experiment with DU-145 was > 100 µM (inactive); with Hs-578T it was 19.1 µM (inactive); with T47D, 13.7 µM (inactive); in the experiment with HOP-62 it was > 100 µM (inactive); in the experiment with CAKI-1 it was 26.5 µM (inactive); in the experiment with SF-539 it was 40 µM (inactive). Besides, the GI50 was 42.3 µM (inactive) in the experiment on U-251; 17.3 µM (inactive) in the experiment with UACC-62; 14.9 µM (inactive) with A549; 5.26 µM (inactive) with BT-549; 47.8 µM (inactive) in the experiment with NCI/ADR-RES; 50.1 µM (inactive) in the experiment on UO-31.

`O=C(Nc1ccc(Cl)cc1)c1cc(S(=O)(=O)Nc2nnc3c(Cl)cc(C(F)(F)F)cn23)c(S)cc1Cl`: the GI50 in the experiment with A498 was 28.7 µM (inactive); in the experiment on OVCAR-5, > 100 µM (inactive); in the experiment on RXF 393, > 100 µM (inactive); in the experiment on IGROV-1 it was > 100 µM (inactive); in the experiment with MDA-MB-435, 49.9 µM (inactive); in the experiment on 786-0, > 100 µM (inactive). Also, the GI50 with DU-145 was > 100 µM (inactive); in the experiment on Hs-578T it was 46.5 µM (inactive); in the experiment with T47D it was > 100 µM (inactive); in the experiment on HCC 2998 it was > 100 µM (inactive); in the experiment with HOP-62, 54.5 µM (inactive); in the experiment on CAKI-1, > 100 µM (inactive). For the same compound, the GI50 in the experiment with SF-539 was > 100 µM (inactive); in the experiment with RPMI-8226, > 100 µM (inactive); in the experiment on U-251 it was 56.5 µM (inactive); in the experiment with A549, > 100 µM (inactive); in the experiment on BT-549, > 100 µM (inactive); in the experiment on NCI/ADR-RES, > 100 µM (inactive). Further, the GI50 with UO-31 was > 100 µM (inactive).

Take `CCCn1cnc2c(/N=N/O)ncnc21`: the GI50 in the experiment on A498, in the experiment on OVCAR-5, in the experiment with RXF 393, in the experiment with IGROV-1, in the experiment with MDA-MB-435 and with 786-0 was > 100 µM (inactive) throughout. Further, the GI50 in the experiment with DU-145, in the experiment on Hs-578T, with T47D, in the experiment with HCC 2998, in the experiment with HOP-62 and in the experiment on CAKI-1 was > 100 µM (inactive) each time. The GI50 in the experiment on SF-539, with RPMI-8226, in the experiment on U-251, in the experiment on UACC-62, in the experiment with BT-549 and in the experiment with NCI/ADR-RES was > 100 µM (inactive) each time. Also, the GI50 with UO-31 was > 100 µM (inactive).

`O=C(O)c1cccc(S(=O)(=O)NCCO)c1`: the GI50 with A498, in the experiment with OVCAR-5, in the experiment with RXF 393, with IGROV-1, in the experiment on MDA-MB-435 and in the experiment on 786-0 was > 100 µM (inactive) throughout. In addition, the GI50 in the experiment with DU-145, in the experiment with Hs-578T, in the experiment with T47D, in the experiment on HOP-62, with CAKI-1 and with SF-539 was > 100 µM (inactive) throughout. For the same compound, the GI50 in the experiment with RPMI-8226, with U-251, with UACC-62, in the experiment with A549, in the experiment on BT-549 and in the experiment with NCI/ADR-RES was > 100 µM (inactive) each time. Moreover, the GI50 in the experiment on UO-31 is > 100 µM (inactive).

As for `O=C(O)CCSCc1ccc(I)cc1`, the GI50 in the experiment with A498 is > 100 µM (inactive); in the experiment with OVCAR-5 it was > 100 µM (inactive); with RXF 393, 96.4 µM (inactive); with IGROV-1 it was > 100 µM (inactive); with MDA-MB-435 it was > 100 µM (inactive); with 786-0, > 100 µM (inactive). For the same compound, the GI50 in the experiment on DU-145, in the experiment on Hs-578T, in the experiment with T47D, with HCC 2998, in the experiment with HOP-62 and with CAKI-1 was > 100 µM (inactive) each time. In addition, the GI50 with RPMI-8226, in the experiment on U-251, with UACC-62, in the experiment with A549, in the experiment with BT-549 and with NCI/ADR-RES was > 100 µM (inactive) in each case. Moreover, the GI50 in the experiment on UO-31 is > 100 µM (inactive).

As to `Nc1nc(N)nc(-c2cnc3ccccc3c2)n1`, the GI50 in the experiment on A498 is > 100 µM (inactive); with OVCAR-5, 39.5 µM (inactive); in the experiment with RXF 393 it was 94.2 µM (inactive); in the experiment on IGROV-1, 58.6 µM (inactive); in the experiment on MDA-MB-435, > 100 µM (inactive); with 786-0, > 100 µM (inactive). The GI50 in the experiment on DU-145, in the experiment with Hs-578T, with T47D, in the experiment on HCC 2998, in the experiment on HOP-62 and with CAKI-1 was > 100 µM (inactive) each time. Also, the GI50 in the experiment on SF-539 was > 100 µM (inactive); with U-251 it was > 100 µM (inactive); in the experiment with UACC-62, 72.1 µM (inactive); in the experiment on A549, > 100 µM (inactive); in the experiment on BT-549, > 100 µM (inactive); in the experiment on NCI/ADR-RES, > 100 µM (inactive). Further, the GI50 in the experiment on UO-31 is > 100 µM (inactive).

Take `O=C(Cc1ccccc1)N/N=C1\C(=O)Nc2ccccc21`: the concentration for 50% growth inhibition (GI50) with A498 is 0.229 µM (active); with OVCAR-5, > 100 µM (inactive); in the experiment on RXF 393, > 100 µM (inactive); with IGROV-1, > 100 µM (inactive); in the experiment on MDA-MB-435, > 100 µM (inactive); with 786-0, 80.5 µM (inactive). Moreover, the GI50 was > 100 µM (inactive) in the experiment on DU-145; 65.3 µM (inactive) with Hs-578T; 63.2 µM (inactive) in the experiment with T47D; > 100 µM (inactive) in the experiment with HCC 2998; > 100 µM (inactive) in the experiment on HOP-62; 23.1 µM (inactive) in the experiment on SF-539. The GI50 is 61.1 µM (inactive) in the experiment with U-251; > 100 µM (inactive) with UACC-62; > 100 µM (inactive) with A549; > 100 µM (inactive) in the experiment with BT-549; 52.4 µM (inactive) in the experiment on NCI/ADR-RES; 48.2 µM (inactive) in the experiment on UO-31.
